Ends that are not written are not given here. Peptide text beside a SMILES is read from it. * marks the point of attachment. Desaminotyrosyl = O=C(CCc1ccc(O)cc1)*
molecular target: T1, Herpes Simplex Virus Ribonucleotide Reductase (Human herpesvirus 2, UniProt P89462); assay: Assay of Inhibition of HSV RR Activity (reduction of tritiated cytidine-diphosphate); assay type: biochemical, HSV2 Strain 186; conditions: 30 minutes at 37°C, dithiothreitol and MgCl2, enzyme not preincubated with inhibitor; read-out: IC50 (μM concentration of peptide producing 50% inhibition of enzyme activity)
T1 construct: HSV RR was purified from Baby Hamster Kidney cells that were cultured with HSV2 Strain 186; made in house; host or cells: Baby Hamster Kidney cells infected with HSV2 Strain 186
Experimental: After infection, cells were harvested and lysed. Crude HSV RR was prepared as described by Huszar et al., J. Virol.
HSV RR activity was determined as the ability of the enzyme to catalyze the reduction of tritiated cytidine-diphosphate to deoxyribo-cytidinediphosphate in 30 minutes at 37°C. in the presence of dithiothreitol and MgCl2. Activity of oligopeptide inhibitors was determined by adding them to the reaction mix at the beginning of the incubation. Enzyme was not preincubated with inhibitor.
These were analyzed for amino acid composition and in some cases sequenced. Dry peptides were resuspended in 100 mM HEPES (pH 8.0) at about 2mM, relyophilized, and stored in aliquots at -80° C. Immediately prior to use they were rehydrated with distilled H2 O and centrifuged to remove any undissolved peptide.

T1 sequence (P89462 whole entry): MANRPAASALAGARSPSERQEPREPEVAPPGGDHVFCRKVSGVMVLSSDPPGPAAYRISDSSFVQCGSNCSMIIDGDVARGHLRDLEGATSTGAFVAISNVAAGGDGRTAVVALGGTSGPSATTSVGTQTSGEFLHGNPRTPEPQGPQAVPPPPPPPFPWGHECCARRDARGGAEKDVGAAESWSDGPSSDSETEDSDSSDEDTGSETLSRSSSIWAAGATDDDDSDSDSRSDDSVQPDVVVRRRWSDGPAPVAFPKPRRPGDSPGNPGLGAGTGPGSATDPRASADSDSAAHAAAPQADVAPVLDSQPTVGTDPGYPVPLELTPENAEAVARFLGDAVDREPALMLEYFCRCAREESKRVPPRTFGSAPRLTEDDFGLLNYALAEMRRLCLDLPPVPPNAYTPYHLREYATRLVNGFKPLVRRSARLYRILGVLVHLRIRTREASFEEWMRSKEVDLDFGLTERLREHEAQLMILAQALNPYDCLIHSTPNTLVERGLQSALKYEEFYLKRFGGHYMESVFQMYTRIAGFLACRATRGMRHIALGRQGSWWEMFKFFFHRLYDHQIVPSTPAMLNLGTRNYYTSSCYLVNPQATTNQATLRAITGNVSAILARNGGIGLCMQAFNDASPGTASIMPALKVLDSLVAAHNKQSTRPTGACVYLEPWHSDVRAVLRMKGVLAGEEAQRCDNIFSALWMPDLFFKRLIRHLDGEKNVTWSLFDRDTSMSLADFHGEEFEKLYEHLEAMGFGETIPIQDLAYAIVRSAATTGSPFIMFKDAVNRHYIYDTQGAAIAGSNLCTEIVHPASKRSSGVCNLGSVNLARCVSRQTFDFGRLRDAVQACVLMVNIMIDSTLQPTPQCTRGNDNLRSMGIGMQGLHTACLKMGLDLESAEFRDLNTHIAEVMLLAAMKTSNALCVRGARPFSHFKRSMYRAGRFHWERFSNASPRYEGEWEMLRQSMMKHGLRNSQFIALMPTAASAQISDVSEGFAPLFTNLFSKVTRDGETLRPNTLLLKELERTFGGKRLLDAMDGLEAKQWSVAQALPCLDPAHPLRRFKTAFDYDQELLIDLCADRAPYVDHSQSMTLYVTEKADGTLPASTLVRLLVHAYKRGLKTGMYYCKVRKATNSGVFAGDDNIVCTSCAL

Compound	IC50 [µM]
CC(C)C[C@H](NC(=O)[C@H](CC(=O)O)NC(=O)[C@H](CC(N)=O)NC(=O)[C@@H](NC(=O)[C@@H](N)C(C)C)C(C)C)C(=O)O [VVNDL, Val Val Asn Asp Leu]	250
SYAGAVVNDL [SYAGAVVNDL]	17
GAVVNDL [GAVVNDL]	70
Ac-GAVVNDL [AcGAVVNDL]	75
CC(C)C[C@H](NC(=O)[C@H](CC(=O)O)NC(=O)[C@H](CC(N)=O)NC(=O)[C@@H](NC(=O)[C@@H](NC(=O)[C@H](C)NC(=O)CNC(=O)[C@H](C)NC(=O)[C@@H](N)Cc1ccc(O)cc1)C(C)C)C(C)C)C(N)=O [YAGAVVNDL--NH2, YAGAVVNDL-NH2]	75
STSYAGAVVNDL [STSYAGAVVNDL]	17
FPLSLMSTDKHTNFFECRSTSYAGAVVNDL	8
CC(C)C[C@H](NC(=O)[C@H](CC(=O)O)NC(=O)[C@H](CC(N)=O)NC(=O)[C@@H](NC(=O)[C@@H](NC(=O)[C@H](C)NC(=O)CNC(=O)[C@H](C)NC(=O)[C@@H](N)Cc1ccc(O)cc1)C(C)C)C(C)C)C(=O)O [YAGAVVNDL, Tyr Ala Gly Ala Val Val Asn Asp Leu, reference compound]	10
CC(C)C[C@H](NC(=O)[C@H](CC(=O)O)NC(=O)[C@H](CC(N)=O)NC(=O)[C@@H](NC(=O)[C@@H](NC(=O)[C@H](C)NC(=O)CNC(=O)[C@H](C)NC(=O)CCc1ccc(O)cc1)C(C)C)C(C)C)C(=O)O [desNH2--YAGAVVNDL, desNH2-YAGAVVNDL] (Desaminotyrosyl-AGAVVNDL-OH)	20
Ac-AVVNDL [AcAVVNDL]	87
AGAVVNDL [AGAVVNDL]	80
TSYAGAVVNDL [TSYAGAVVNDL]	17
CC(=O)N[C@@H](Cc1ccc(O)cc1)C(=O)N[C@@H](C)C(=O)NCC(=O)N[C@@H](C)C(=O)N[C@H](C(=O)N[C@H](C(=O)N[C@@H](CC(N)=O)C(=O)N[C@@H](CC(=O)O)C(=O)N[C@@H](CC(C)C)C(=O)O)C(C)C)C(C)C [AcYAGAVVNDL]	5
AVVNDL [AVVNDL]	51

molecular target: ribonucleotide reductase enzyme of herpes simplex virus (Human herpesvirus 1, UniProt P08543); assay: not given; conditions: Nature 321:439-441 and 441-443 (1986); cited from earlier work
Sequence (P08543 whole entry): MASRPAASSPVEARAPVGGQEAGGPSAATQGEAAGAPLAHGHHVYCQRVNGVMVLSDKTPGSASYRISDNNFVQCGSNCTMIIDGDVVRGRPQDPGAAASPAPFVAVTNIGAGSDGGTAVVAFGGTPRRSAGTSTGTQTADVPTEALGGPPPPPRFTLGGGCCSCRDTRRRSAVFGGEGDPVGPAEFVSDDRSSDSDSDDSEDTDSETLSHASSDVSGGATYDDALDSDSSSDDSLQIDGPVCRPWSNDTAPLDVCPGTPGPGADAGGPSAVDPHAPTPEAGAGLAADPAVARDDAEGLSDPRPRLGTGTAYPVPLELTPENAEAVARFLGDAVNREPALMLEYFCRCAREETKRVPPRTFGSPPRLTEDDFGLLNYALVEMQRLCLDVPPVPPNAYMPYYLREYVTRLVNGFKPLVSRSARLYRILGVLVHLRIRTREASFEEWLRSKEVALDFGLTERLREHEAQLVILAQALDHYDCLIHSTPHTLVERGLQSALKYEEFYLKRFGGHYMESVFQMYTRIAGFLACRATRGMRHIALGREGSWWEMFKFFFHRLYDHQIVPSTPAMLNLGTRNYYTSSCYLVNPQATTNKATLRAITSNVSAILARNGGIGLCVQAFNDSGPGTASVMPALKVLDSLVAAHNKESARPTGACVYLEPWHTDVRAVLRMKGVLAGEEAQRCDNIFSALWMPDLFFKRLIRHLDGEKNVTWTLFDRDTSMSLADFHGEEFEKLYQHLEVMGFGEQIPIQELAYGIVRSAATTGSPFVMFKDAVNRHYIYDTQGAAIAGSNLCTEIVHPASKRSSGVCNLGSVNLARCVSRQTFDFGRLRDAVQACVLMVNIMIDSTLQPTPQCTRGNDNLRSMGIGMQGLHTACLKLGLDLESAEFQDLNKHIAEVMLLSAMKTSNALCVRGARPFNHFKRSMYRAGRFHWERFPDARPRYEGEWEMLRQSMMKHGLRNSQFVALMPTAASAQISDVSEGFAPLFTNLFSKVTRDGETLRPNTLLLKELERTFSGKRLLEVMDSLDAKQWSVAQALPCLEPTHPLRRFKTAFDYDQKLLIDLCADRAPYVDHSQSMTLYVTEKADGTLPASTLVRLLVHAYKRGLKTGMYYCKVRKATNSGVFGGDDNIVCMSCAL

Compound	inhibition of the activity of the enzyme in vitro
Tyr GVly Ala Val Val Asn Asp Leu	inhibited
